Converted amounts (≈) assume the structure as drawn. Structures can show the parent of a compound that is named as a salt. Where two headings read alike, the source gives them in different places.
Tests used:
ABTS radical method = conditions: individual compounds; maximum assay concentration 100 mM
Method: (§1) Five antioxidant methods were performed with SlEOs and their main individual compounds in triplicate. In the oxygen radical absorbance capacity (ORAC) assay, peroxyl radicals are produced by 2,2′-Azobis(2-methylpropionamidine) dihydrochloride (AAPH), which reacts with fluorescein giving a non-fluorescent compound [61]. The antioxidants are able to scavenge these peroxyl radicals. Trolox was used as the reference antioxidant. The 2,2-diphenyl-1-picrylhydrazyl (DPPH) and 2,2′-azino-bis(3-ethylbenzothiazoline-6-sulphonic acid) (ABTS) methods measure the bleaching produced by the reduction of the coloured DPPH and ABTS radicals. Trolox was used as the reference antioxidant. The RdP method measure the ability to reduce ferric ions, according to the method of Oyaizu. Ascorbic acid was the reference antioxidant used in this method. The ChP method measured the ability to chelate Fe^2+ ion, following the method of Miguel et al.. EDTA was used as reference antioxidant. The SlEOs were diluted in 100% ethanol in the DPPH, ABTS, RdP and ChP methods, whereas in the ORAC method, SlEOs were diluted in 15% ethanol to obtain a final concentration of 5% ethanol in the reaction medium. All measurements were made at the end-point of the reaction, except in the ORAC method (Figure S5).

DPPH radical method = conditions: individual compounds; maximum assay concentration 100 mM
Method: as §1

[1] = Oxygen radical absorbance capacity (ORAC) assay; conditions: individual compounds; maximum assay concentration 100 mM
Method: as §1

[2] = Chelating power (ChP) method; conditions: individual compounds; maximum assay concentration 100 mM
Method: as §1

[3] = tested on: Staphylococcus aureus ATCC 6538; assay: Broth microdilution MIC and MBC; type: cell-based
Method: (§2) The following test microorganisms used in this work were acquired from Sigma-Aldrich: Pseudomonas aeruginosa ATCC 9027, Escherichia coli ATCC 8739, Staphylococcus aureus ATCC 6538, and Candida albicans ATCC 10231. The stock cultures were preserved in TSB or YPD with 15% glycerol, for bacteria and yeast cells, respectively, at −80 °C. Isolated colonies from an 18- to 24-h agar plate were transferred to MHB for bacteria and RPMI-1640 for C. albicans.
(§3) MIC were determined using the broth microdilution method in 96-well microplates, according to the M07-A10 [69] standard for bacteria and the M27-A3 [70] for Candida. Briefly, two-fold dilutions of a 40 µL/mL SlEOs were prepared to obtain a final concentration range of 0.08–20 µL/mL with 0.5% Tween®80 and 2.5% DMSO. The antimicrobial activities of main compounds were also tested in the concentration range of 0.12–15 mM with 0.5% Tween®80 and 2.5% DMSO as solvent. The final strain concentration was 5 × 10^5 CFU/mL in MHB for the bacteria and 0.5−2.5 × 10^3 in RPMI-1640 for the yeast. These plates were incubated for 24 h for bacteria and 48 h for Candida, both at 35 ± 1 °C, under aerobic conditions on a plate shaker at 100 rpm. Streptomycin (0.06–8.00 µg/mL) and fluconazole (0.13–16 µg/mL) were used as reference antibacterial and antifungal compound, respectively. […] MIC is defined as the lowest concentration of EO or individual compound with no visible growth of microorganisms, at the end of the incubation period. […] All determinations were carried out in triplicate.

[4] = tested on: Escherichia coli ATCC 8739; assay: Broth microdilution MIC and MBC; type: cell-based
Method: as §2, §3

[5] = Reducing power (RdP) method; conditions: individual compounds; maximum assay concentration 100 mM
Method: as §1

[6] = tested on: Candida albicans ATCC 10231; assay: Broth microdilution MIC and MFC; type: cell-based
Method: as §2, §3

LOX = target: T1, LOX (Glycine max, UniProt P08170); assay: LOX inhibition assay; type: biochemical, Glycine max (soybean)
T1 construct: purchased Sigma-Aldrich
T1 sequence (P08170 whole entry): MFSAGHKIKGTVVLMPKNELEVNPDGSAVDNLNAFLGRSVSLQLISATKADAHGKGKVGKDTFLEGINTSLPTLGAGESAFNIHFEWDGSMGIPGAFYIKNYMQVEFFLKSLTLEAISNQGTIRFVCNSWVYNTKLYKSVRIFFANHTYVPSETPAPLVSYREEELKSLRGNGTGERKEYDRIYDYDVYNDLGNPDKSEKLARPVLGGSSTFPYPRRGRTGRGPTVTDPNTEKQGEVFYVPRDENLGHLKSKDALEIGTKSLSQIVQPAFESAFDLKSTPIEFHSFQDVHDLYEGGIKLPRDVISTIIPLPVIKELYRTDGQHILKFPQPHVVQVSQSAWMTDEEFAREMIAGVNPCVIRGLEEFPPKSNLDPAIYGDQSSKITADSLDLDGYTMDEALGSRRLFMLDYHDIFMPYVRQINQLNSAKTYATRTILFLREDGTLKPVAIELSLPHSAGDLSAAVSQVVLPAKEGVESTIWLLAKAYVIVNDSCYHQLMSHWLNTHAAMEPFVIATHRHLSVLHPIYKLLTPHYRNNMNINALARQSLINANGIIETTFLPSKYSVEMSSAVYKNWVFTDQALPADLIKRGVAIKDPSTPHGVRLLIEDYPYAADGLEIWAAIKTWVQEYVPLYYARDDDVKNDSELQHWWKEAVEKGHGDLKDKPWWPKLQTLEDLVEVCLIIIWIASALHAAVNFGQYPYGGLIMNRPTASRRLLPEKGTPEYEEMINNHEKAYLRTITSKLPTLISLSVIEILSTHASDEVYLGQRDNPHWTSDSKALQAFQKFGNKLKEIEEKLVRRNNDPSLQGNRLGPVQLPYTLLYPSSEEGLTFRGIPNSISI
Method: A LOX preparation from Glycine max (soybean) was acquired from Sigma-Aldrich. LOX inhibitory activity was determined as previously reported, based on the absorption at 234 nm of the hydroperoxyde conjugated dienes (ε = 25,000 M^−1 cm^−1), which are generated from the oxidation of linoleic acid in the presence of oxygen and LOX. This assay was carried out on a double beam Lambda 35 spectrophotometer (PerkinElmer, Madrid, Spain) with the UV-Winlab software, at 25 °C.
The DI in both antienzymatic assays were calculated using Equation (1):(1) DI (%)= ν0−νi/ν0 × 100 where v0 and v1 are the steady state rates without and with inhibitor, respectively. The inhibitions of LOX were reported as DI at 150 µg/mL of each SlEO. […] To calculate the IC50 values, data of DI (%) of seven different concentrations of each SlEO were plotted and fitted by non-linear regression according to Equation (2) using Sigma Plot software (systatsoftware.com) (Figure S6). The inhibitions of LOX and AChE by individual compounds were reported as IC50 or DI, depending on their inhibition capacities and solubilities.
(2) DI (%)= DImax [I]0/IC50+ [I]0

Row | SMILES | ABTS (ABTS radical method) | DPPH (DPPH radical method) | ORAC [1] | ChP [2] | MIC ([3]; ATCC6538, 24 h, read-out: MIC) [µg/mL] | MBC ([3]; ATCC6538, read-out: MBC) [µg/mL] | MIC ([4]; ATCC8739, 24 h, read-out: MIC) [µg/mL] | MBC ([4]; ATCC8739, read-out: MBC) [µg/mL] | RdP [5] | MIC ([6]; ATCC10231, 48 h, read-out: MIC) [µg/mL] | MFC ([6]; ATCC10231, read-out: MFC) [µg/mL] | also measured
1 | C=C1CC/C=C(\C)CC[C@@H]2[C@@H]1CC2(C)C [β-Caryophyllene, (E)-β-Caryophyllene] | N/D (Activity lower than 0.05 units at a maximum assay concentration of 100 mM) | N/D (Activity lower than 0.05 units at a maximum assay concentration of 100 mM) | 394.7 ± 14.5 µmol TE/mmol X | 7.1 ± 0.5 µmol EDTAE/mmol X | > 3100 | > 3100 | > 3100 | > 3100 | N/D (Activity lower than 0.05 units at a maximum assay concentration of 100 mM) | > 3100 | > 3100 | –
2 | CC1(C)C2CCC1(C)C(O)C2 (stereo not drawn) [Borneol] | N/D (Activity lower than 0.05 units at a maximum assay concentration of 100 mM) | N/D (Activity lower than 0.05 units at a maximum assay concentration of 100 mM) | N/D (Activity lower than 0.05 units at a maximum assay concentration of 100 mM) | N/D (Activity lower than 0.05 units at a maximum assay concentration of 100 mM) | 300 (≈ 1.94 mM) | 300 (≈ 1.94 mM) | 1100 (≈ 7.13 mM) | 1100 (≈ 7.13 mM) | N/D (Activity lower than 0.05 units at a maximum assay concentration of 100 mM) | 600 (≈ 3.89 mM) | 600 (≈ 3.89 mM) | –
3 | CC(C)C12CCC(C)(O)C1C2 (stereo not drawn) [Sabinene hydrate] | 0.5 ± 0.0 µmol TE/mmol X | N/D (Activity lower than 0.05 units at a maximum assay concentration of 100 mM) | N/D (Activity lower than 0.05 units at a maximum assay concentration of 100 mM) | 6.7 ± 0.6 µmol EDTAE/mmol X | – | – | – | – | N/D (Activity lower than 0.05 units at a maximum assay concentration of 100 mM) | – | – | –
4 | CC1=CCC(C(C)C)=CC1 [γ-Terpinene] | 2.5 ± 0.1 µmol TE/mmol X | 0.3 ± 0.0 µmol TE/mmol X | 171.4 ± 10.3 µmol TE/mmol X | 0.3 ± 0.0 µmol EDTAE/mmol X | – | – | – | – | 0.3 ± 0.0 µmol AAE/mmol X | – | – | –
5 | C=C1CCC2(C(C)C)CC12 (stereo not drawn) [Sabinene] | – | – | – | – | > 2000 | > 2000 | > 2000 | > 2000 | – | > 2000 | > 2000 | –
6 | C=C(C)[C@H]1CC=C(C)CC1 [Limonene] | 0.6 ± 0.0 µmol TE/mmol X | N/D (Activity lower than 0.05 units at a maximum assay concentration of 100 mM) | 128.0 ± 10.8 µmol TE/mmol X | 5.9 ± 0.4 µmol EDTAE/mmol X | – | – | – | – | N/D (Activity lower than 0.05 units at a maximum assay concentration of 100 mM) | – | – | MBC [3]: 300 µg/mL (≈ 2.2 mM); MIC ([3]; 24 h): 300 µg/mL (≈ 2.2 mM); MBC [4]: 2000 µg/mL (≈ 14.7 mM); MIC ([4]; 24 h): 2000 µg/mL (≈ 14.7 mM); MFC [6]: 1000 µg/mL (≈ 7.34 mM); MIC ([6]; 48 h): 1000 µg/mL (≈ 7.34 mM); IC50LOX (LOX): 116.1 ± 3.3 µg/mL (≈ 0.852 mM)
7 | CC1=CC[C@@H](C(C)(C)O)CC1 [α-Terpineol] | 0.2 ± 0.0 µmol TE/mmol X | N/D (Activity lower than 0.05 units at a maximum assay concentration of 100 mM) | 310.0 ± 16.6 µmol TE/mmol X | 4.9 ± 0.3 µmol EDTAE/mmol X | 600 (≈ 3.89 mM) | 1100 (≈ 7.13 mM) | 2400 (≈ 15.6 mM) | 2400 (≈ 15.6 mM) | N/D (Activity lower than 0.05 units at a maximum assay concentration of 100 mM) | > 2400 | > 2400 | DI (%) of LOX (LOX; at 514.2 µg/mL, could not reach 50% inhibition): 17.4 ± 0.2%
8 | C=CC(=C)CCC=C(C)C [Myrcene] | N/D (Activity lower than 0.05 units at a maximum assay concentration of 100 mM) | N/D (Activity lower than 0.05 units at a maximum assay concentration of 100 mM) | N/D (Activity lower than 0.05 units at a maximum assay concentration of 100 mM) | 2.5 ± 0.2 µmol EDTAE/mmol X | > 2100 | > 2100 | > 2100 | > 2100 | N/D (Activity lower than 0.05 units at a maximum assay concentration of 100 mM) | > 2100 | > 2100 | –
9 | [H]/N=C(/N)N[C@H]1[C@H](O)[C@@H](O)[C@H](O[C@@H]2O[C@@H](C)[C@](O)(C=O)[C@H]2O[C@@H]2O[C@@H](CO)[C@H](O)[C@@H](O)[C@@H]2NC)[C@@H](N/C(N)=N\[H])[C@@H]1O [Streptomycin sulfate, reference compound] | – | – | – | – | 1 | 1 | 1 | 1 | – | – | – | –
10 | CC1=CC=C(C(C)C)CC1 [α-Terpinene] | 4.0 ± 0.2 µmol TE/mmol X | 0.3 ± 0.0 µmol TE/mmol X | N/D (Activity lower than 0.05 units at a maximum assay concentration of 100 mM) | 62.2 ± 4.7 µmol EDTAE/mmol X | – | – | – | – | 1.9 ± 0.1 µmol AAE/mmol X | – | – | –
11 | C=CC(C)(CCC=C(C)C)OC(C)=O (stereo not drawn) [Linalyl acetate] | 0.1 ± 0.0 µmol TE/mmol X | N/D (Activity lower than 0.05 units at a maximum assay concentration of 100 mM) | 207.1 ± 13.2 µmol TE/mmol X | 27.4 ± 2.1 µmol EDTAE/mmol X | – | – | – | – | N/D (Activity lower than 0.05 units at a maximum assay concentration of 100 mM) | – | – | MBC ([3]; ATCC6538): > 3000 µg/mL; MIC ([3]; ATCC6538, 24 h): 3000 µg/mL; MBC ([4]; ATCC8739): > 3000 µg/mL; MIC ([4]; ATCC8739, 24 h): > 3000 µg/mL; MFC ([6]; ATCC10231): > 3000 µg/mL; MIC ([6]; ATCC10231, 48 h): > 3000 µg/mL
12 | C=C1CCC2CC1C2(C)C (stereo not drawn) [β-Pinene] | 0.1 ± 0.0 µmol TE/mmol X | N/D (Activity lower than 0.05 units at a maximum assay concentration of 100 mM) | 26.6 ± 1.6 µmol TE/mmol X | 1.8 ± 0.1 µmol EDTAE/mmol X | > 2000 | > 2000 | > 2000 | > 2000 | N/D (Activity lower than 0.05 units at a maximum assay concentration of 100 mM) | > 2000 | > 2000 | –
13 | OC(Cn1cncn1)(Cn1cncn1)c1ccc(F)cc1F [Fluconazole, reference compound] | – | – | – | – | – | – | – | – | – | 4 (≈ 0.0131 mM) | 4 (≈ 0.0131 mM) | –
14 | Cc1ccc(C(C)C)cc1 [p-Cymene] | 0.1 ± 0.0 µmol TE/mmol X | N/D (Activity lower than 0.05 units at a maximum assay concentration of 100 mM) | N/D (Activity lower than 0.05 units at a maximum assay concentration of 100 mM) | 20.1 ± 1.6 µmol EDTAE/mmol X | > 2000 | > 2000 | 1000 (≈ 7.45 mM) | 2000 (≈ 14.9 mM) | N/D (Activity lower than 0.05 units at a maximum assay concentration of 100 mM) | 500 (≈ 3.73 mM) | 500 (≈ 3.73 mM) | –
15 | C/C1=C\CC/C(C)=C/CC(C)(C)/C=C/C1 [α-Humulene] | – | – | – | – | – | – | – | – | – | – | – | MBC [3]: 3000 µg/mL (≈ 14.7 mM); MIC ([3]; 24 h): 1600 µg/mL (≈ 7.83 mM); MBC [4]: >3000 µg/mL; MIC ([4]; 24 h): >3000 µg/mL; MFC [6]: >3000 µg/mL; MIC ([6]; 48 h): >3000 µg/mL
